# Reference: ChEMBL document CHEMBL1201862, “PubChem BioAssay data set” (2004)
# The source made the active and inactive calls. For most assays here, no stated cut-off is given here; in the data, actives have a measured EC50 and inactives only a lower limit.
# What was measured:
# [1] = inhibitors of intracellular T. cruzi replication, confirmation, NIH3T3 host cells, beta-gal luminescence (AID 2044); assay type: functional, cell-based;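 further: intracellular parasites grown in NIH/3T3 mouse fibroblasts as host cells; luminescent beta-galactosidase reporter signal from transgenic T. cruzi replicating inside host cells; inhibitors lower the luminescence signal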
# [2] = cytotoxicity toward NIH3T3 fibroblasts, dose response, counter-screen, cell-based, ATP luminescence, mouse fibroblasts (AID 2010); assay type: functional;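 further: cells exposed to compound for about 90 hours before reading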
# [3] = target: T1, Heat shock factor protein 1 (Mus musculus, UniProt P38532); experiment: inhibition of MG132-induced HSE-luciferase signal, confirmation, cell-based, NIH3T3, luminescence, dose retest (AID 2382); assay type: functional;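 further: NIH3T3 fibroblasts with HSF1-driven luciferase reporter stressed by proteasome inhibitor MG132; luminescence from HSF1-driven luciferase expression after 8 hours of MG132 stress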
# T1 sequence (P38532 whole entry): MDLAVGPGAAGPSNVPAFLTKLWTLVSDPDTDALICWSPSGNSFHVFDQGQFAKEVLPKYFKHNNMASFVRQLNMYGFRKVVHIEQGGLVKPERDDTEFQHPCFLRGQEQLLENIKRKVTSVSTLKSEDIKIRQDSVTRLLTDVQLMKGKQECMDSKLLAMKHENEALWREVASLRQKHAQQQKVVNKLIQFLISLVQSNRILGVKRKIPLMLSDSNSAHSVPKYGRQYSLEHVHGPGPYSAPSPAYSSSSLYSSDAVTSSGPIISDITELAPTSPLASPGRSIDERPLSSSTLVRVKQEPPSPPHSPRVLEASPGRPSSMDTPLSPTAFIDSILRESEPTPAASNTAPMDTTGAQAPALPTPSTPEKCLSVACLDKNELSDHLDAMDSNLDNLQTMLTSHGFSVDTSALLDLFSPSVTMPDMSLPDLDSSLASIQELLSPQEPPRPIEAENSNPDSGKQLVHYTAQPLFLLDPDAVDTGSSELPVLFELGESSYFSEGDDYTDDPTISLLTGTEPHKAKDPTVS
# [4] = Luminescence Cell-Based Dose Retest to Confirm Inhibitors of Cancer Stem Cells. [Related pubchem assays (depositor defined):AID2717, AID2721]; assay type: functional; conditions: Homo sapiens
# [5] = growth suppression of PTEN-null colon cells, dose response, cell-based, HCT116 PTEN knockout (AID 1047); assay type: functional;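 further: HCT116 colon tumor cells with PTEN knocked out; cells exposed to compound for 60 hours before readout; potency for loss of cell viability measured by luminescence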
# [6] = growth suppression of beta-catenin-knockout colon cells, dose response, cell-based, HCT116, human colon tumor (AID 1045); assay type: functional;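 further: HCT116 colon tumor cells with beta catenin knocked out; cells exposed to compound for 60 hours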
# [7] = target: T2, Corticotropin-releasing factor receptor 2/Corticotropin-releasing factor-binding protein (Homo sapiens, UniProt P24387+Q13324); experiment: activators of CRF receptor 2 with binding protein – uHTS hits, confirmation (AID 602473); assay type: functional; conditions: read-out: EC50_Mean
# T2 sequence (Q13324 whole entry): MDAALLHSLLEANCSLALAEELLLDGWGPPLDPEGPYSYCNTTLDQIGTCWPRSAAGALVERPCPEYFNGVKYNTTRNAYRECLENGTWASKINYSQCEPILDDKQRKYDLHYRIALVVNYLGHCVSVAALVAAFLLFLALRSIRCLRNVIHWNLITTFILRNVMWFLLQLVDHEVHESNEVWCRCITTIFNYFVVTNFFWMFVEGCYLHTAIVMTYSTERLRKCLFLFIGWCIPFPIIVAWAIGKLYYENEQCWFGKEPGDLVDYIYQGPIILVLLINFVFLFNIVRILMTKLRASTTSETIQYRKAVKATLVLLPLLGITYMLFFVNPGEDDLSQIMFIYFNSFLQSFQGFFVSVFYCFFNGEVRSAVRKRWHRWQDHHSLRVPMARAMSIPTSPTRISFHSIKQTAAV
# T2 sequence (P24387 whole entry): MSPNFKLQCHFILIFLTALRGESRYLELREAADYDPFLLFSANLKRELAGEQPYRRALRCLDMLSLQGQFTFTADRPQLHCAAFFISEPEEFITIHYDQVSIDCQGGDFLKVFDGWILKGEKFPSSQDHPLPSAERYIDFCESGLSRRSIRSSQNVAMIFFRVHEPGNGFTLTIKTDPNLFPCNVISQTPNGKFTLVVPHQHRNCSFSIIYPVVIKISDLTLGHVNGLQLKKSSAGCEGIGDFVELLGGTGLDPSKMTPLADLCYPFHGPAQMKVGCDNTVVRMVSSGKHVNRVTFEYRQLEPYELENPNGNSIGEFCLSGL
# [8] = system: Streptococcus sp. 'group A'; experiment: growth inhibition of control SK(-) GAS strain, dose response, counter-screen for streptokinase expression inhibitor project, luminescence, kanamycin, BacTiterGlo, confirmation (AID 1900); assay type: functional, organism-based
# [9] = system: Streptococcus; experiment: Group A Streptococcus viability loss, dose response, counter-screen for streptokinase expression inhibitor project, luminescence, BacTiterGlo (AID 1915); assay type: functional, organism-based;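 further: potency for reduction of bacterial viability or growth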
# 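Wherever AC50 is given: cells exposed to compound for roughly 70 hours or longer before luminescence read.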
smiles,measurement,setting,value
COc1ccc(CN2CCN(Cc3ccc(C)cc3)CC2)c(OC)c1,EC50,[1],0.22 µM (active)
same,EC50,[2],> 60 µM (not active)
COc1ccc2nc(Cl)c(C#N)cc2c1,EC50,[3],> 195 µM (not active)
O=C(CCc1ccccc1)Nc1ncc([N+](=O)[O-])s1,EC50,[1],0.951 µM (active)
same,EC50,[2],> 60 µM (not active)
Cc1cccc(NC(=O)c2cc(-c3cc(C)cc(C)c3O)[nH]n2)c1,AC50,[4],2.86 µM (active)
O=C(Nc1ccc(Cl)c(Cl)c1)Nc1cc(S(=O)(=O)N2CCOCC2)ccc1N1CCCC1,EC50,[5],22.5 µM (active)
same,EC50,[6],20.3 µM (active)
CCOC(=O)c1c(NC(=O)c2nn(CC)cc2Br)sc2c1CCCCC2,AC50,[4],1.12 µM (active)
CC1(c2ccc(OC(F)F)cc2)NC(=O)N(CC(=O)c2ccc3c(c2)OCO3)C1=O (stereo not drawn),EC50,[7],5.4 µM (active)
Cn1c(NC(=O)c2ccccc2NC(=O)C(C)(C)C)nc2ccccc21,EC50,[3],> 195 µM (not active)
O=C(CCCCn1c(=O)[nH]c2ccsc2c1=O)NCc1cccnc1,EC50,[3],> 195 µM (not active)
Cc1ccc(C(C(=O)NCc2ccco2)N(C(=O)CNC(=O)c2cccs2)c2c(C)cccc2C)cc1 (stereo not drawn),EC50,[5],6.55 µM (active)
same,EC50,[6],8.32 µM (active)
COc1ccc(C2=NN(CN3C(=O)C(=O)c4ccccc43)C(c3ccc(Br)cc3)C2)cc1 (stereo not drawn),EC50,[5],27.3 µM (active)
same,EC50,[6],26.2 µM (active)
O=c1cc(N2CCCCC2)c(-c2ccccc2)nn1Cc1cccc(Cl)c1,AC50,[4],3.6 µM (active)
COc1cc2c(cc1OC)C(c1cc3cccc(C)c3nc1O)N(C(=O)c1ccco1)CC2 (stereo not drawn),EC50,[1],3.44 µM (active)
same,EC50,[2],10.5 µM (active)
CCOC(=O)c1c(NC(=O)Cc2ccccc2)sc2c1CCN(C)C2,EC50,[1],0.109 µM (active)
same,EC50,[2],> 60 µM (not active)
COc1ccc(-c2nc3ccccc3c(=O)n2-c2cccnc2)cc1,EC50,[3],> 195 µM (not active)
COc1ccc(CN(C(=O)Cc2cccs2)C(C(=O)NC2CCCC2)c2ccncc2)cc1 (stereo not drawn),EC50,[1],2.22 µM (active)
same,EC50,[2],50.8 µM (active)
CCn1c(=O)c2c3c(sc2n2cnnc12)CCC3,EC50,[3],> 195 µM (not active)
CC1CC(C)CN(S(=O)(=O)c2ccc(C(=O)Nc3nnc(C4CC4)o3)cc2)C1 (stereo not drawn),EC50,[8],1.25 µM (active)
same,EC50,[9],5.33 µM (active)
CCCNC(=O)Cn1c(=O)/c(=C/c2ccc(-c3ccc([N+](=O)[O-])cc3)o2)s/c1=C\C(=O)C(C)(C)C,EC50,[7],2.05 µM (active)
COc1ccccc1-n1c(S)nnc1CNC(=O)c1cccc([N+](=O)[O-])c1C,EC50,[3],> 195 µM (not active)
CN(C(=O)CSc1nc(C2CC2)nc2ccccc12)c1nc(-c2ccccc2)cs1,EC50,[5],14.7 µM (active)
same,EC50,[6],12.7 µM (active)
Cc1cccc(Oc2cc(NC(=O)Cn3cnc([N+](=O)[O-])n3)cc([N+](=O)[O-])c2)c1,EC50,[5],36.1 µM (active)
same,EC50,[6],28.7 µM (active)
Clc1cccc(Nc2nc(-c3cccnc3)cs2)c1,EC50,[1],1.23 µM (active)
same,EC50,[2],> 60 µM (not active)
CC1(C)C(=O)N(c2ccccc2)C1c1ccccc1O (stereo not drawn),AC50,[4],2.95 µM (active)
Cc1cc(Br)c(NC(=O)CN2CC=C(c3ccccc3)CC2)c(Br)c1,EC50,[1],0.255 µM (active)
same,EC50,[2],> 60 µM (not active)
Cc1cc(C)nc(NC(=NC(=O)C(C)(C)C)NCCc2c[nH]c3ccccc23)n1,EC50,[1],2.34 µM (active)
same,EC50,[2],> 60 µM (not active)
CN(C)c1ccc(CNc2ccc3c(c2)ncn3C(C)(C)C)cc1,EC50,[3],169 µM (active)
CC(NC(=O)c1cccnc1)C(c1cccs1)N1CCOCC1 (stereo not drawn),EC50,[1],> 60 µM (not active)
same,EC50,[2],> 60 µM (not active)
O=C(CCCNC1=NS(=O)(=O)c2ccccc21)OCC(=O)c1ccc(F)c(F)c1,EC50,[7],7.63 µM (active)
Cc1ccc(-n2c(SCC(=O)N3c4ccccc4Sc4ccccc43)nnc2-c2ccncc2)cc1,EC50,[1],0.345 µM (active)
same,EC50,[2],> 60 µM (not active)
Cc1nnsc1[S+]([O-])c1ccc(Cl)c(Cl)c1 (stereo not drawn),EC50,[3],12.4 µM (active)
Cc1cccc(C)c1OCc1cc(C(=O)N2C[C@@H]3C[C@H]4C[C@@H](C3)C[C@@H]2C4)no1,AC50,[4],1.27 µM (active)
Cc1cccc(NC(=O)CSCC(=O)Nc2cc(Cl)ccc2N2CCN(C)CC2)c1,EC50,[1],2.41 µM (active)
same,EC50,[2],> 60 µM (not active)
Nc1ccc(C23CC4CC(CC(O)(C4)C2)C3)cc1,EC50,[3],41.2 µM (active)
CCC(O)(CC)C(=O)N/N=C/c1cc(Br)cc(Br)c1O,EC50,[8],2.9 µM (active)
same,EC50,[9],3.08 µM (active)
same,AC50,[4],12.6 µM (active)
COc1cc(C2SCC(=O)N2CCCN(C)C)cc(OC)c1OC (stereo not drawn),EC50,[1],0.264 µM (active)
same,EC50,[2],> 60 µM (not active)
CCCCCn1nc(C)c(/C=N\NC(=O)c2cc(C)oc2C)c1C,EC50,[7],> 53 µM (inactive)
COC(=O)NC(=S)Nc1ccc(Oc2ccc(Cl)cc2Cl)c(Cl)c1,EC50,[1],1.83 µM (active)
same,EC50,[2],> 60 µM (not active)
CCc1cc2c(NCCC(=O)O)nc(C)nc2s1,EC50,[3],> 195 µM (not active)
CCN1CC2([N+](=O)[O-])C=CC(=O)C([N+](=O)[O-])(C1)C2CC(=O)c1ccccc1 (stereo not drawn),EC50,[3],> 195 µM (not active)
O=C(Nc1cc(C(F)(F)F)ccc1Cl)c1cccnc1,EC50,[7],> 53 µM (inactive)
Cc1cccc(C)c1N=C(S)N(Cc1ccccc1)Cc1cccnc1,EC50,[1],1.46 µM (active)
same,EC50,[2],> 60 µM (not active)
O=C(c1cccc([N+](=O)[O-])c1)N1CCN(c2cccc(Cl)c2)CC1,EC50,[5],4.8 µM (active)
same,EC50,[6],5.22 µM (active)
C=CCOCCN(CCOCC=C)C1=NS(=O)(=O)c2ccccc21,EC50,[3],> 195 µM (not active)
CN(C)c1nc(NCc2ccccc2)nc(SCC(=O)Nc2ccc(Cl)c(Cl)c2)n1,EC50,[1],2.15 µM (active)
same,EC50,[2],> 60 µM (inconclusive)
Cc1cc(=O)oc2cc(OCC#N)ccc12,EC50,[3],> 195 µM (not active)
CC1CC1C(=O)N1CCN(S(=O)(=O)c2cc(C(F)(F)F)cc(C(F)(F)F)c2)CC1 (stereo not drawn),AC50,[4],2.76 µM (active)
COc1ccc(N2CCN(c3ncnc4scc(-c5ccc(C)cc5)c34)CC2)cc1,EC50,[1],2.69 µM (active)
same,EC50,[2],> 60 µM (not active)
O=[N+]([O-])c1cn(-c2nc(-c3ccco3)cc(C(F)(F)F)n2)cn1,EC50,[1],0.723 µM (active)
same,EC50,[2],> 30 µM (not active)
CCOC(=O)Cn1c(COc2ccccc2OC)[n+](C)c2ccccc21,EC50,[3],> 195 µM (not active)
COc1ccc(C(=O)C2CCCN(C3CSCCSC3)C2)c(OC)c1 (stereo not drawn),AC50,[4],0.939 µM (active)
COc1ccc(Cl)cc1NC(=O)CN(C)C(=O)Cn1cnc2c1c(=O)n(C)c(=O)n2C,EC50,[3],> 195 µM (not active)
COc1cc(OC)c(OC)cc1CN1CCCC(C(=O)c2ccccc2SC)C1 (stereo not drawn),EC50,[1],0.138 µM (active)
same,EC50,[2],> 60 µM (not active)
COc1ccc2c(c1)C=C(CN1CCN(Cc3ccccc3C)C(CCO)C1)CO2 (stereo not drawn),EC50,[1],0.391 µM (active)
same,EC50,[2],> 30 µM (not active)
CCN(Cc1ccccc1)C(=O)C1CCN(Cc2sccc2C)CC1,EC50,[3],> 195 µM (not active)
O=C(Cc1csc(Nc2nc(S)nc3ccccc23)n1)NCCCN1CCN(c2cccc(Cl)c2)CC1,EC50,[8],8.14 µM (active)
same,EC50,[9],> 150 µM (not active)
CC1CCN(CC(=O)NC2CCCCC2)CC1,EC50,[3],> 195 µM (not active)
O=C(N/N=C/c1cc(Br)cc(Br)c1O)c1cccc(S(=O)(=O)N2CCOCC2)c1,EC50,[8],0.765 µM (active)
same,EC50,[9],3.91 µM (active)
